Assay results published in patent US20260263429A1, “INHIBITORS OF CA 2+/CALMODULIN-DEPENDENT PROTEIN KINASE II (CAMKII) THAT DO NOT INHIBIT LONG-TERM POTENTIATION (LTP) INDUCTION AND THERAPEUTIC USES THEREOF” (The Regents of the University of Colorado, A Body Corporate, priority 2023, published 2026).

Key:
[1] = tested on: GFP-CaMKII synaptic enrichment (mCh-PSD95 intrabody); experiment: cLTP-induced CaMKII movement to excitatory synapses in dissociated rat hippocampal cultures; type: cell-based; details: 10 μM inhibitor; cLTP 100 μM glutamate, 10 μM glycine, 45 seconds
pT286 CaMKII = experiment: CaMKII T286 phosphorylation in hippocampal cultures after chemical LTP stimulation; type: cell-based
Method: In this Example, other possibilities of AS283 action were tested. If AS283 blocks pT286 but not LTP because it also circumvents the need of pT286 for LTP, then AS283 should not only fail to block LTP in WT mice (as illustrated in FIGS. 3A-3B) but should also restore the capacity for LTP induction in T286A mutant mice. […] Specifically, in an exemplary method, the addition of AS283 (10 μM) enabled LTP in slices from the T286A mutant mice (FIGS. 3C-3D).
Immunoblot analysis. Protein concentration was determined using the Pierce BCA protein assay (Thermo-Fisher). Before undergoing SDS-PAGE, samples were boiled in Laemmli sample buffer for 5 min at 95° C. Proteins were separated in a resolving phase polymerized from 10% acrylamide, then transferred to a polyvinylidene difluoride membrane at 24 V for 1-2 h at 4° C. […] Blots were developed using chemiluminescence (Super Signal West Femto, Thermo-Fisher) imaged using the Chemi-Imager 4400 system (Alpha-Innotech), or imaged directly by fluorescence (Cytiva CyDye 700 goat anti-mouse and CyDye 800 goat anti-rabbit secondary antibodies.) using an OdysseyFc imaging instrument. All immunoblots were analyzed by densitometry (ImageJ). […]

[2] = tested on: LTP in CaMKIIα knockout slices; experiment: LTP induction in slices of CaMKIIα knockout mice injected with AAV-mScarlet (mock) or AAV-mScarlet-CaMKII F89G; type: cell-based, mouse
Method: Specifically, in one exemplary method, pharmacogenetic rescue of LTP with NM-PP1 was tested in hippocampal slices expressing the CaMKII F89G mutant. For this purpose, mScarlet-labeled CaMKII F89G mutant were re-expressed in the hippocampal CA1 region of CaMKIIα knockout mice. This was done by stereotactic injection of a packaged adeno-associated virus (AAV) construct in which the expression of either mScarlet alone or the mScarlet-labeled mutant CaMKII is controlled by the CaMKIIα promoter (FIG. 5A). After 5 weeks of expression, acute slices were prepared and evaluated for proper localization of expression by imaging of mScarlet fluorescence (FIG. 5A and FIG. 11A). […] As expected, NM-PP1 had no effect on the residual LTP in these control slices (FIGS. 5B-5C and FIG. 11B). By contrast, in slices expressing the CaMKII F89G mutant, LTP was completely abolished (FIGS. 5D-5E), consistent with residual LTP being further suppressed by the dominant negative effect (on the remaining minor CaMKIIβ isoform in the CaMKIIα knockout) that is exerted by a CaMKII mutant with impaired ATP-binding and thereby is deficient in both activity and GluN2B binding. […] Thus, two independent lines of pharmacogenetic evidence topple current dogma by directly supporting the conclusion that LTP induction is linked to structural rather than enzymatic functions of CaMKII.
AAV Production. […]

| SMILES | cLTP-induced CaMKII co-localization/movement to excitatory synapses in hippocampal neurons [1] | increase in pT286 levels after chemical LTP stimulation (pT286 CaMKII) | residual LTP in CaMKIIα knockout slices expressing mScarlet control ([2]; NM-PP1) | LTP induction in CaMKIIα knockout slices expressing CaMKII F89G ([2]; NM-PP1 10 μM) |
| --- | --- | --- | --- | --- |
| NCCNc1cccc(-c2ccnc3[nH]c4ccccc4c23)c1 [AS283] | failed to inhibit CaMKII binding to GluN2B | specifically blocked increase in pT286 levels | – | – |
| CC(C)(C)n1nc(Cc2cccc3ccccc23)c2c(N)ncnc21 [NM-PP1] | – | – | no effect | LTP induction was enabled |
